Assay results: ChEMBL document CHEMBL4028801, “A multifactorial approach to hepatobiliary transporter assessment enables improved therapeutic compound development” (Toxicol Sci, 2013)

What was measured:
Bile salt export pump = Bile salt export pump (Homo sapiens, UniProt O95342); assay: Inhibition of human BSEP overexpressed in Sf9 cell membrane vesicles assessed as uptake of [3H]-taurocholate in presence of ATP measured after 15 to 20 mins by membrane vesicle transport assay; assay type: ADME, cell-based
[1] = Ratio of drug concentration at steady state in human at 6 to 12 mg, po BID after 12 hrs to IC50 for human BSEP overexpressed in Sf9 insect cells; assay type: ADME, organism-based; details: in vivo
[2] = AUC in human at 6 to 12 mg, po BID after 12 hrs; assay type: ADME, organism-based; details: in vivo
[3] = biological target: ATP-binding cassette sub-family C member 2 (Homo sapiens, UniProt Q92887); assay: Inhibition of human MRP2 overexpressed in Sf9 cell membrane vesicles assessed as uptake of [3H]-estradiol-17beta-D-glucuronide in presence of ATP and GSH measured after 20 mins by membrane vesicle transport assay
[4] = biological target: ATP-binding cassette sub-family C member 3 (Homo sapiens, UniProt O15438); assay: Inhibition of human MRP3 overexpressed in Sf9 insect cell membrane vesicles assessed as uptake of [3H]-estradiol-17beta-D-glucuronide in presence of ATP and GSH measured after 10 mins by membrane vesicle transport assay; assay type: ADME, cell-based
[5] = biological target: T1, ATP-binding cassette sub-family C member 4 (Homo sapiens, UniProt O15439); assay: Inhibition of human MRP4 overexpressed in Sf9 cell membrane vesicles assessed as uptake of [3H]-estradiol-17beta-D-glucuronide in presence of ATP and GSH measured after 20 mins by membrane vesicle transport assay; assay type: ADME, cell-based
T1 sequence (O15439 whole entry): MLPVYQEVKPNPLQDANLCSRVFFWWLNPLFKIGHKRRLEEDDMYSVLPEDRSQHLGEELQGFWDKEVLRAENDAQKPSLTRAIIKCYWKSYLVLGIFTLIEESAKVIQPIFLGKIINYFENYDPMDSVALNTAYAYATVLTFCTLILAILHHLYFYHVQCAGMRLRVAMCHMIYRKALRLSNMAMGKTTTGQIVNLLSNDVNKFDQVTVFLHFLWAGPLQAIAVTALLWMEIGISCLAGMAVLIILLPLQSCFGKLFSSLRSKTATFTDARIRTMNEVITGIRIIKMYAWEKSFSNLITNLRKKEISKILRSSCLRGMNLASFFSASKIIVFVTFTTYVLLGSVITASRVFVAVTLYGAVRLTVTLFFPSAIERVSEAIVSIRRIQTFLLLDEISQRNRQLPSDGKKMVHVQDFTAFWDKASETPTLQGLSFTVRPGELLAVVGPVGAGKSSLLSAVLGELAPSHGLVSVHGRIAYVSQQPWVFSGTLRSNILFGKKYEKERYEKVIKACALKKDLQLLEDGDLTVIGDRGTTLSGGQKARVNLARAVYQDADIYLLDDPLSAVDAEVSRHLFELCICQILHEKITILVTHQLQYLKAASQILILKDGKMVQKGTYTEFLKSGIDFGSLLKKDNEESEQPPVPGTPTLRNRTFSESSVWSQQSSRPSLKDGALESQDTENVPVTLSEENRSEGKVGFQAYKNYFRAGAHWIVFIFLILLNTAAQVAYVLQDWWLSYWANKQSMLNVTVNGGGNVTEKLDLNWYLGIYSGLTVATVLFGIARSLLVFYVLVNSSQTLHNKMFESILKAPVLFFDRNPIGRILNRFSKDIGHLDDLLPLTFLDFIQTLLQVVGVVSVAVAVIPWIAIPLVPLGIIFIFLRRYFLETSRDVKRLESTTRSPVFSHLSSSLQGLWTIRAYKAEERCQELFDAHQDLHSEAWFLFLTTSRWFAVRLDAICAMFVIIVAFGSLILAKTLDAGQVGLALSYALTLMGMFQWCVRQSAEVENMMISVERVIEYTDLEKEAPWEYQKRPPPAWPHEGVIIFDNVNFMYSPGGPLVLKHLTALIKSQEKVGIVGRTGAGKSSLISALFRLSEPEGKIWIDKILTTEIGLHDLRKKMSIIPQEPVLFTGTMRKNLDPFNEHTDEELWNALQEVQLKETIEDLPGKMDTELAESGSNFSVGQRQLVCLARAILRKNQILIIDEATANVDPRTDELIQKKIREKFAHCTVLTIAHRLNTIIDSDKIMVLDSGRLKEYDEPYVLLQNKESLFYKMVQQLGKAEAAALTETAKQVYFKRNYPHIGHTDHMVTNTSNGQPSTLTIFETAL

[6] = Drug concentration at steady state in human at 6 to 12 mg, po BID after 12 hrs; assay type: ADME, organism-based; details: in vivo, read-out: Css
[7] = AUC in human at 5 to 80 mg, po QD after 24 hrs; assay type: ADME, organism-based; details: in vivo
[8] = Drug concentration at steady state in human at 5 to 80 mg, po QD after 24 hrs; assay type: ADME, organism-based; details: in vivo, read-out: Css
[9] = AUC in human at 60 to 250 mg, po QD after 12 hrs; assay type: ADME, organism-based; details: in vivo
[10] = Ratio of drug concentration at steady state in human at 60 to 250 mg, po QD after 12 hrs to IC50 for human BSEP overexpressed in Sf9 insect cells; assay type: ADME, organism-based; details: in vivo
[11] = Drug concentration at steady state in human at 60 to 250 mg, po QD after 12 hrs; assay type: ADME, organism-based; details: in vivo, read-out: Css
[12] = AUC in human at 1% applied topically BID after 12 hrs; assay type: ADME; set-up: time < 12 hr; details: topical or ocular
[13] = Drug concentration in human at steady state at 1% applied topically BID after 12 hrs; assay type: ADME; details: topical or ocular, read-out: Css
[14] = Ratio of drug concentration at steady state at 1% applied topically BID after 12 hrs to IC50 for human BSEP overexpressed in Sf9 insect cells; assay type: ADME; details: topical_or_ocular
[15] = Drug concentration at steady state in human at 2.5 to 20 mg, po QD after 24 hrs; assay type: ADME, organism-based; details: in vivo, read-out: Css
[16] = Ratio of drug concentration at steady state in human at 2.5 to 20 mg, po QD after 24 hrs to IC50 for human BSEP overexpressed in Sf9 insect cells; assay type: ADME, organism-based; details: in vivo
[17] = AUC in human at 2.5 to 20 mg, po QD after 24 hrs; assay type: ADME, organism-based; details: in vivo
[18] = Drug concentration at steady state in human at 1.5 ug administered as 1 drop intraocularly QD after 24 hrs; assay type: ADME; details: in vivo, topical or ocular, read-out: Css
[19] = AUC in human at 1.5 ug administered as 1 drop intraocularly QD after 24 hrs; assay type: ADME; set-up: dose 1.5 ug, time < 24 hr, route intraocular; details: in vivo, topical or ocular
[20] = Ratio of drug concentration at steady state in human at 1.5 ug administered as 1 drop intraocularly QD after 24 hrs to IC50 for human BSEP overexpressed in Sf9 insect cells; assay type: ADME; details: in vivo, topical_or_ocular

ATP-binding cassette sub-family C member 3, sequence (O15438 whole entry): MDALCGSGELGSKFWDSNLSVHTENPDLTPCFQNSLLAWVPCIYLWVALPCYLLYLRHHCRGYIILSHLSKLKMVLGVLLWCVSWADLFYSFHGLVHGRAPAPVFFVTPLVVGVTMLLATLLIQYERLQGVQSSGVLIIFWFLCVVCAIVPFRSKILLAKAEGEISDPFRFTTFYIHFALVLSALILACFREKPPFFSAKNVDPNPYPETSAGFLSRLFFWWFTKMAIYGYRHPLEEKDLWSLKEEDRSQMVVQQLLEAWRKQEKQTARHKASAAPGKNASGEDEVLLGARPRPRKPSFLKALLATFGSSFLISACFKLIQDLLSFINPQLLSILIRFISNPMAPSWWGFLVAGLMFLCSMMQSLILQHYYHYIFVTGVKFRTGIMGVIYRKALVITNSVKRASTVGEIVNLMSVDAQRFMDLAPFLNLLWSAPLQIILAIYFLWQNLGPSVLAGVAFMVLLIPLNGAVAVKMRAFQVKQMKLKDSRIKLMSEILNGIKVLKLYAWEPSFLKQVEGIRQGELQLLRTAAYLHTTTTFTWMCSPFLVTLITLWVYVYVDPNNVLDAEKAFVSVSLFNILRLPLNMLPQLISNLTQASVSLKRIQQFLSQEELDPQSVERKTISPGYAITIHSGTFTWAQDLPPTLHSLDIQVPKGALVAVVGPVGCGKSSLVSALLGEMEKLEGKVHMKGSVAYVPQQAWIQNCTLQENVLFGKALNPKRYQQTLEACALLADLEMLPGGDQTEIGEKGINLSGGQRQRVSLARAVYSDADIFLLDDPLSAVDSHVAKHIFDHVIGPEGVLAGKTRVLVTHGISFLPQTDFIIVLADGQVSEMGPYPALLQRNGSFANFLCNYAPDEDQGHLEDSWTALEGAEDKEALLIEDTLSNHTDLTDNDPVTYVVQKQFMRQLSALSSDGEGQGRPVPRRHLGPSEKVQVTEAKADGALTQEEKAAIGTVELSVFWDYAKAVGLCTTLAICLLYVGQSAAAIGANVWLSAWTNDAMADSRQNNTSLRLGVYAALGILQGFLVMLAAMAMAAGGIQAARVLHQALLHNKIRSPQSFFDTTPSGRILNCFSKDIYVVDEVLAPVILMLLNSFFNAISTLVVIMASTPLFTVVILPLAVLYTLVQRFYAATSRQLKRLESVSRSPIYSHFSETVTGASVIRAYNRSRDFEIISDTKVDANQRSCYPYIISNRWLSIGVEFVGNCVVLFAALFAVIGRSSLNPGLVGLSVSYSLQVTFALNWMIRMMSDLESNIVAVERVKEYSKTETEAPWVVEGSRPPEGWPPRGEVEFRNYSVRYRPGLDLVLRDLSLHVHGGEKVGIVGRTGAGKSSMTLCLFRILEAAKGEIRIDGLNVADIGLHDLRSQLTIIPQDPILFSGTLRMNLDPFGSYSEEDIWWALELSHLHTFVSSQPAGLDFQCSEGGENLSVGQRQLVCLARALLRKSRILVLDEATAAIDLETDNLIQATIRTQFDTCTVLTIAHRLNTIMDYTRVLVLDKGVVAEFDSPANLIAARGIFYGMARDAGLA
Bile salt export pump, sequence (O95342 whole entry): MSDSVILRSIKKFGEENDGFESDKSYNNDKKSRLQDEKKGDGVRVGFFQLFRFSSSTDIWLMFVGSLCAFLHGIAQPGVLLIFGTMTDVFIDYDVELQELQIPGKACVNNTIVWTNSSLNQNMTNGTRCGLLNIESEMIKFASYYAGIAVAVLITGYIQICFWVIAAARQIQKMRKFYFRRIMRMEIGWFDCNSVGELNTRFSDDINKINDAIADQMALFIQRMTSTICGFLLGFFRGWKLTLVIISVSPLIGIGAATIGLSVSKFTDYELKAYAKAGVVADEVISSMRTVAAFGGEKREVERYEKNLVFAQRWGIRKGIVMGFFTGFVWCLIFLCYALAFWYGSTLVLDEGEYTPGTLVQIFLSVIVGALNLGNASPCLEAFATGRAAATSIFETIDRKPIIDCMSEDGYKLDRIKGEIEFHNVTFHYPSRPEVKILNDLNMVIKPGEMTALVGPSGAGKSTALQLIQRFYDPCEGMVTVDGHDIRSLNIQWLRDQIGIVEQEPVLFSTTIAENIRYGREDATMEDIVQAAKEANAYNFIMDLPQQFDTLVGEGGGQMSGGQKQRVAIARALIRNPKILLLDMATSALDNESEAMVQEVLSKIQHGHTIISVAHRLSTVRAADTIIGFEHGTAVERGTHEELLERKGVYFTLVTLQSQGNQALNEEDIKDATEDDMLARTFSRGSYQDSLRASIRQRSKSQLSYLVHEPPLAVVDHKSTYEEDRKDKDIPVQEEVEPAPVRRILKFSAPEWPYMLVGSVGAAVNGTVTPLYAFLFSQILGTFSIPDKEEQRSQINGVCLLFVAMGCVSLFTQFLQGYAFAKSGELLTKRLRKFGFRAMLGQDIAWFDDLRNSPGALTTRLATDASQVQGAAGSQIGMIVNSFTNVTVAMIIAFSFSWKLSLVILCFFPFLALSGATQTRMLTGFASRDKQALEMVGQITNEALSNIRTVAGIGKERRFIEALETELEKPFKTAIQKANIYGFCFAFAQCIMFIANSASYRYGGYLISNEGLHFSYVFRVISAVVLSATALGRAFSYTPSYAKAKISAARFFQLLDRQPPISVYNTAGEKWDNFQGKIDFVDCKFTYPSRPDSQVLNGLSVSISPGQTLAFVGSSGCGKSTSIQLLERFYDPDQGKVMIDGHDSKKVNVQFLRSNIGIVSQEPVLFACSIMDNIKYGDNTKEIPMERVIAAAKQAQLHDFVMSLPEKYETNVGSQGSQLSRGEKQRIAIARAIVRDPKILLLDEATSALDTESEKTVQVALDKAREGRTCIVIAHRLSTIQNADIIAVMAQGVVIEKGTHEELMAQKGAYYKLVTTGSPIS
ATP-binding cassette sub-family C member 2, sequence (Q92887 whole entry): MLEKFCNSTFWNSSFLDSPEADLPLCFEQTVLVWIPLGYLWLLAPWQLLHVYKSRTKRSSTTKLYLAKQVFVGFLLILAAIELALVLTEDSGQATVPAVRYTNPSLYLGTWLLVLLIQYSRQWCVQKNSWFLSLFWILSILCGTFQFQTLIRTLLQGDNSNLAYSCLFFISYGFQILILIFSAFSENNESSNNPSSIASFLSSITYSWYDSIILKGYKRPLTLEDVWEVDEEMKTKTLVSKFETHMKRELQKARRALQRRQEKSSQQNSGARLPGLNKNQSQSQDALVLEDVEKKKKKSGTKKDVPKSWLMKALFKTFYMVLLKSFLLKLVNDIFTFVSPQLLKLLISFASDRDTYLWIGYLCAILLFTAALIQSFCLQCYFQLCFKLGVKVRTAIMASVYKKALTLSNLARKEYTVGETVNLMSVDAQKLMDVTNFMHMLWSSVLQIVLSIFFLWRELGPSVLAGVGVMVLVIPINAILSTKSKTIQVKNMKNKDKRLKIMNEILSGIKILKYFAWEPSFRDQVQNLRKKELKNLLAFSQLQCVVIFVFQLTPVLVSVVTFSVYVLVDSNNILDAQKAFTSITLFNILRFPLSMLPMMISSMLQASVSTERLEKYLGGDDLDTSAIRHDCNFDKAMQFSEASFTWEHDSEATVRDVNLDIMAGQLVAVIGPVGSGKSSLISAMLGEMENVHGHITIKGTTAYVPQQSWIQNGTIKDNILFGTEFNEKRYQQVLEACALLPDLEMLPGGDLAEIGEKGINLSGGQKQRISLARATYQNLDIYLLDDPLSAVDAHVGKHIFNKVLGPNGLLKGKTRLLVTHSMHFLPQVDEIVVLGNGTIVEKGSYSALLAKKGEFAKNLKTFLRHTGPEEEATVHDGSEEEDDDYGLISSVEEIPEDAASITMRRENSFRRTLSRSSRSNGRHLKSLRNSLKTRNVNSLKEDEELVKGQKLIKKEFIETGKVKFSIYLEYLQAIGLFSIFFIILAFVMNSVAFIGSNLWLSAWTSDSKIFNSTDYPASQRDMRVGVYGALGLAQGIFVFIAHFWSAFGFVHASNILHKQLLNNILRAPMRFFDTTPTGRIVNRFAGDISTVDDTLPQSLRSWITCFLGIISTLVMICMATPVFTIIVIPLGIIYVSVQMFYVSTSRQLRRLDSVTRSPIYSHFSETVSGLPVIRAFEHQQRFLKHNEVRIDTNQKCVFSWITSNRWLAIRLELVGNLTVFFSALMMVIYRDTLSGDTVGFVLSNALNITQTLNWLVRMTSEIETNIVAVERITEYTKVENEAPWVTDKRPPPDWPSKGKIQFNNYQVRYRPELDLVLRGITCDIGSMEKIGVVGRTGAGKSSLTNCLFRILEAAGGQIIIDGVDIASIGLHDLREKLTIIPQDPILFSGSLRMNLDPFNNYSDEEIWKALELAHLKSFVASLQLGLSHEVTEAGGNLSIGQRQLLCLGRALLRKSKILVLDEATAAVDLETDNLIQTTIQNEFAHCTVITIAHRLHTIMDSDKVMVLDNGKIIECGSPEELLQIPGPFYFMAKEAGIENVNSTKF

In the case of `COc1cc(C(C)=O)ccc1OCCCN1CCC(c2noc3cc(F)ccc23)CC1` [ILOPERIDONE], the IC50 (Bile salt export pump) is reported as 23.4 µM, the Ratio [1] is reported as 0.00038 and the AUC at 12 h [2] is reported as 0.106 µM·h. The IC50 [3] was > 133 µM, the IC50 [4] was > 133 µM and the IC50 [5] was > 133 µM. It also gave a concentration at 12 h [6] of 9 nM.
In the case of `CCC(C)(C)C(=O)O[C@H]1C[C@@H](C)C=C2C=C[C@H](C)[C@H](CC[C@@H]3C[C@@H](O)CC(=O)O3)[C@H]21` [SIMVASTATIN], the IC50 [3] is reported as > 133 µM, the AUC at 24 h [7] is reported as 0.212 µM·h and the IC50 [4] is reported as > 133 µM. For the same compound, the IC50 [5] was > 133 µM and the concentration at 24 h [8] was 9 nM.
With `CN1CCN(C2=Nc3ccccc3Oc3ccc(Cl)cc32)CC1.O=C(O)CCC(=O)O` [LOXAPINE SUCCINATE] the AUC at 12 h [9] was 0.369 µM·h, the IC50 (Bile salt export pump) was 77 µM and the Ratio [10] was 0.0004. For the same compound, the concentration at 12 h [11] was 31 nM, the IC50 [3] was > 133 µM and the IC50 [4] was > 133 µM. For the same compound, the IC50 [5] was > 133 µM.
Compound `CC[C@@H]1/C=C(\C)C[C@H](C)C[C@H](OC)[C@H]2O[C@@](O)(C(=O)C(=O)N3CCCC[C@H]3C(=O)O[C@H](/C(C)=C/[C@@H]3CC[C@H](Cl)[C@H](OC)C3)[C@H](C)[C@@H](O)CC1=O)[C@H](C)C[C@@H]2OC` [PIMECROLIMUS] has an AUC at 12 h [12] of 0.023 µM·h, a concentration at 12 h [13] of 2 nM and an IC50 (Bile salt export pump) of 10 µM. The IC50 [3] was > 133 µM, the Ratio [14] was 0.00019 and the IC50 [4] was > 133 µM. The IC50 [5] was > 133 µM.
For `COC(=O)C1=C(C)NC(C)=C(C(=O)OC(C)C)C1c1cccc2nonc12` (stereo not given) [ISRADIPINE], the concentration at 24 h [15] was 8 nM, the IC50 (Bile salt export pump) was 28 µM and the IC50 [3] was > 133 µM. For the same compound, the Ratio [16] was 0.0003, the IC50 [4] was > 133 µM and the IC50 [5] was > 133 µM. The AUC at 24 h [17] was 0.197 µM·h.
`CC(C)OC(=O)CCC/C=C\C[C@@H]1[C@@H](CC[C@@H](O)CCc2ccccc2)[C@H](O)C[C@@H]1O` [LATANOPROST] gave a concentration at 24 h [18] of 2 nM, an IC50 (Bile salt export pump) of 12.9 µM and an AUC at 24 h [19] of 0.047 µM·h. For the same compound, the Ratio [20] was 0.00015, the IC50 [3] was > 133 µM and the IC50 [4] was > 133 µM. For the same compound, the IC50 [5] was > 133 µM.
